≈ marks a conversion by molar mass, not a printed value.
What was measured:
Assay type in all cases: functional
Staphylococcus aureus [1] = experiment: Antimicrobial activity against methicillin-resistant Staphylococcus aureus 309-7 clinical isolate after 16 hrs by broth microdilution method; settings: 309-7, 16 h
Staphylococcus aureus [2] = experiment: Antimicrobial activity against methicillin-resistant Staphylococcus aureus 309-6 clinical isolate after 16 hrs by broth microdilution method; settings: 309-6, 16 h
Staphylococcus aureus [3] = experiment: Antimicrobial activity against methicillin-resistant Staphylococcus aureus Chaoyang clinical isolate after 16 hrs by broth microdilution method
Klebsiella pneumoniae = experiment: Antimicrobial activity against Klebsiella pneumoniae KP-249 clinical isolate after 16 hrs by broth microdilution method; settings: KP-249, 16 h
Pseudomonas aeruginosa = experiment: Antimicrobial activity against Pseudomonas aeruginosa PAO1 after 16 hrs by broth microdilution method; settings: PAO1, 16 h
Staphylococcus aureus [4] = experiment: Antimicrobial activity against methicillin-resistant Staphylococcus aureus 6281 clinical isolate after 16 hrs by broth microdilution method; settings: Staphylococcus aureus, 6281, 16 h
Bacillus spizizenii = experiment: Antimicrobial activity against Bacillus subtilis ATCC 6633 after 16 hrs by broth microdilution method; settings: ATCC 6633, 16 h
Staphylococcus aureus [5] = experiment: Antimicrobial activity against methicillin-resistant Staphylococcus aureus 6-42 clinical isolate after 16 hrs by broth microdilution method; settings: 6-42, 16 h
Enterococcus faecalis [6] = experiment: Antimicrobial activity against vancomycin-susceptible Enterococcus faecalis after 16 hrs by broth microdilution method
Staphylococcus aureus [7] = experiment: Antimicrobial activity against methicillin-resistant Staphylococcus aureus 8-21 clinical isolate after 16 hrs by broth microdilution method; settings: 8-21, 16 h
Staphylococcus aureus [8] = experiment: Antimicrobial activity against methicillin-resistant Staphylococcus aureus 309-8 clinical isolate after 16 hrs by broth microdilution method; settings: 309-8, 16 h
Staphylococcus aureus [9] = experiment: Antimicrobial activity against methicillin-resistant Staphylococcus aureus 309-4 clinical isolate after 16 hrs by broth microdilution method; settings: 309-4, 16 h
Staphylococcus aureus [10] = experiment: Antimicrobial activity against Staphylococcus aureus ATCC 6538 after 16 hrs by broth microdilution method; settings: ATCC 6538, 16 h
Staphylococcus aureus [11] = experiment: Antimicrobial activity against methicillin-resistant Staphylococcus aureus 309-3 clinical isolate after 16 hrs by broth microdilution method; settings: 309-3, 16 h
Staphylococcus aureus [12] = experiment: Antimicrobial activity against methicillin-resistant Staphylococcus aureus 8-24 clinical isolate after 16 hrs by broth microdilution method; settings: 8-24, 16 h
Staphylococcus aureus [13] = experiment: Antimicrobial activity against methicillin-resistant Staphylococcus aureus 309-1 clinical isolate after 16 hrs by broth microdilution method; settings: 309-1, 16 h
Enterococcus faecalis [14] = experiment: Antimicrobial activity against Enterococcus faecalis VRE-309 after 16 hrs by broth microdilution method; settings: VRE-309, 16 h

Cc1cccc2c1NC(=O)/C2=N\NC(=S)Nc1ccc(Cl)cc1
MIC (Staphylococcus aureus [1]): 1.56 µg/mL (≈ 4.52 µM) | MIC (Staphylococcus aureus [2]): 3.12 µg/mL (≈ 9.05 µM) | MIC (Staphylococcus aureus [3]): 0.78 µg/mL (≈ 2.26 µM) | MIC (Klebsiella pneumoniae): > 100 µg/mL | MIC (Pseudomonas aeruginosa): > 100 µg/mL | MIC (Staphylococcus aureus [4]): 3.12 µg/mL (≈ 9.05 µM) | MIC (Bacillus spizizenii): 1.56 µg/mL (≈ 4.52 µM) | MIC (Staphylococcus aureus [5]): 1.56 µg/mL (≈ 4.52 µM) | MIC (Enterococcus faecalis [6]): 3.12 µg/mL (≈ 9.05 µM) | MIC (Staphylococcus aureus [7]): 1.56 µg/mL (≈ 4.52 µM) | MIC (Staphylococcus aureus [8]): 1.56 µg/mL (≈ 4.52 µM) | MIC (Staphylococcus aureus [9]): 1.56 µg/mL (≈ 4.52 µM) | MIC (Staphylococcus aureus [10]): 1.56 µg/mL (≈ 4.52 µM) | MIC (Staphylococcus aureus [11]): 3.12 µg/mL (≈ 9.05 µM) | MIC (Staphylococcus aureus [12]): 1.56 µg/mL (≈ 4.52 µM) | MIC (Staphylococcus aureus [13]): 1.56 µg/mL (≈ 4.52 µM) | MIC (Enterococcus faecalis [14]): 1.56 µg/mL (≈ 4.52 µM)

O=C1Nc2c(I)cccc2/C1=N/NC(=S)Nc1cccc(Cl)c1
MIC (Staphylococcus aureus [1]): 3.12 µg/mL (≈ 6.83 µM) | MIC (Staphylococcus aureus [2]): 6.25 µg/mL (≈ 13.7 µM) | MIC (Staphylococcus aureus [3]): 0.78 µg/mL (≈ 1.71 µM) | MIC (Klebsiella pneumoniae): > 100 µg/mL | MIC (Pseudomonas aeruginosa): > 100 µg/mL | MIC (Staphylococcus aureus [4]): 6.25 µg/mL (≈ 13.7 µM) | MIC (Bacillus spizizenii): ≤ 0.78 µg/mL | MIC (Staphylococcus aureus [5]): 3.12 µg/mL (≈ 6.83 µM) | MIC (Enterococcus faecalis [6]): 12.5 µg/mL (≈ 27.4 µM) | MIC (Staphylococcus aureus [7]): 6.25 µg/mL (≈ 13.7 µM) | MIC (Staphylococcus aureus [8]): 6.25 µg/mL (≈ 13.7 µM) | MIC (Staphylococcus aureus [9]): 1.56 µg/mL (≈ 3.42 µM) | MIC (Staphylococcus aureus [10]): 3.12 µg/mL (≈ 6.83 µM) | MIC (Staphylococcus aureus [11]): 3.12 µg/mL (≈ 6.83 µM) | MIC (Staphylococcus aureus [12]): 3.12 µg/mL (≈ 6.83 µM) | MIC (Staphylococcus aureus [13]): 3.12 µg/mL (≈ 6.83 µM) | MIC (Enterococcus faecalis [14]): 3.12 µg/mL (≈ 6.83 µM)

COc1cccc(NC(=S)N/N=C2\C(=O)Nc3c(F)cccc32)c1
MIC (Staphylococcus aureus [1]): 1.56 µg/mL (≈ 4.53 µM) | MIC (Staphylococcus aureus [2]): 3.12 µg/mL (≈ 9.06 µM) | MIC (Staphylococcus aureus [3]): 1.56 µg/mL (≈ 4.53 µM) | MIC (Klebsiella pneumoniae): > 100 µg/mL | MIC (Pseudomonas aeruginosa): > 100 µg/mL | MIC (Staphylococcus aureus [4]): 3.12 µg/mL (≈ 9.06 µM) | MIC (Bacillus spizizenii): 1.56 µg/mL (≈ 4.53 µM) | MIC (Staphylococcus aureus [5]): 1.56 µg/mL (≈ 4.53 µM) | MIC (Enterococcus faecalis [6]): > 100 µg/mL | MIC (Staphylococcus aureus [7]): 1.56 µg/mL (≈ 4.53 µM) | MIC (Staphylococcus aureus [8]): 1.56 µg/mL (≈ 4.53 µM) | MIC (Staphylococcus aureus [9]): 1.56 µg/mL (≈ 4.53 µM) | MIC (Staphylococcus aureus [10]): 3.12 µg/mL (≈ 9.06 µM) | MIC (Staphylococcus aureus [11]): 1.56 µg/mL (≈ 4.53 µM) | MIC (Staphylococcus aureus [12]): 3.12 µg/mL (≈ 9.06 µM) | MIC (Staphylococcus aureus [13]): 1.56 µg/mL (≈ 4.53 µM) | MIC (Enterococcus faecalis [14]): > 100 µg/mL

O=C1Nc2c(Br)cccc2/C1=N/NC(=S)Nc1ccc(Cl)cc1
MIC (Staphylococcus aureus [1]): 0.39 µg/mL (≈ 0.952 µM) | MIC (Staphylococcus aureus [2]): 1.56 µg/mL (≈ 3.81 µM) | MIC (Staphylococcus aureus [3]): 0.39 µg/mL (≈ 0.952 µM) | MIC (Klebsiella pneumoniae): > 100 µg/mL | MIC (Pseudomonas aeruginosa): > 100 µg/mL | MIC (Staphylococcus aureus [4]): 1.56 µg/mL (≈ 3.81 µM) | MIC (Bacillus spizizenii): ≤ 0.78 µg/mL | MIC (Staphylococcus aureus [5]): 0.78 µg/mL (≈ 1.9 µM) | MIC (Enterococcus faecalis [6]): 3.12 µg/mL (≈ 7.62 µM) | MIC (Staphylococcus aureus [7]): 0.78 µg/mL (≈ 1.9 µM) | MIC (Staphylococcus aureus [8]): 0.78 µg/mL (≈ 1.9 µM) | MIC (Staphylococcus aureus [9]): 0.78 µg/mL (≈ 1.9 µM) | MIC (Staphylococcus aureus [10]): 1.56 µg/mL (≈ 3.81 µM) | MIC (Staphylococcus aureus [11]): 0.78 µg/mL (≈ 1.9 µM) | MIC (Staphylococcus aureus [12]): 1.56 µg/mL (≈ 3.81 µM) | MIC (Staphylococcus aureus [13]): 0.78 µg/mL (≈ 1.9 µM) | MIC (Enterococcus faecalis [14]): 1.56 µg/mL (≈ 3.81 µM)

COc1ccc(NC(=S)N/N=C2\C(=O)Nc3c(Cl)cccc32)cc1
MIC (Staphylococcus aureus [1]): 1.56 µg/mL (≈ 4.32 µM) | MIC (Staphylococcus aureus [2]): 6.25 µg/mL (≈ 17.3 µM) | MIC (Staphylococcus aureus [3]): 1.56 µg/mL (≈ 4.32 µM) | MIC (Klebsiella pneumoniae): > 100 µg/mL | MIC (Pseudomonas aeruginosa): > 100 µg/mL | MIC (Staphylococcus aureus [4]): 6.25 µg/mL (≈ 17.3 µM) | MIC (Bacillus spizizenii): ≤ 0.78 µg/mL | MIC (Staphylococcus aureus [5]): 1.56 µg/mL (≈ 4.32 µM) | MIC (Enterococcus faecalis [6]): > 100 µg/mL | MIC (Staphylococcus aureus [7]): 3.12 µg/mL (≈ 8.65 µM) | MIC (Staphylococcus aureus [8]): 3.12 µg/mL (≈ 8.65 µM) | MIC (Staphylococcus aureus [9]): 1.56 µg/mL (≈ 4.32 µM) | MIC (Staphylococcus aureus [10]): 6.25 µg/mL (≈ 17.3 µM) | MIC (Staphylococcus aureus [11]): 3.12 µg/mL (≈ 8.65 µM) | MIC (Staphylococcus aureus [12]): 3.12 µg/mL (≈ 8.65 µM) | MIC (Staphylococcus aureus [13]): 3.12 µg/mL (≈ 8.65 µM) | MIC (Enterococcus faecalis [14]): > 100 µg/mL

COc1cccc(NC(=S)N/N=C2\C(=O)Nc3c(Cl)cccc32)c1
MIC (Staphylococcus aureus [1]): 0.78 µg/mL (≈ 2.16 µM) | MIC (Staphylococcus aureus [2]): 3.12 µg/mL (≈ 8.65 µM) | MIC (Staphylococcus aureus [3]): 0.78 µg/mL (≈ 2.16 µM) | MIC (Klebsiella pneumoniae): > 100 µg/mL | MIC (Pseudomonas aeruginosa): > 100 µg/mL | MIC (Staphylococcus aureus [4]): 6.25 µg/mL (≈ 17.3 µM) | MIC (Bacillus spizizenii): ≤ 0.78 µg/mL | MIC (Staphylococcus aureus [5]): 0.78 µg/mL (≈ 2.16 µM) | MIC (Enterococcus faecalis [6]): > 100 µg/mL | MIC (Staphylococcus aureus [7]): 1.56 µg/mL (≈ 4.32 µM) | MIC (Staphylococcus aureus [8]): 1.56 µg/mL (≈ 4.32 µM) | MIC (Staphylococcus aureus [9]): 0.78 µg/mL (≈ 2.16 µM) | MIC (Staphylococcus aureus [10]): 3.12 µg/mL (≈ 8.65 µM) | MIC (Staphylococcus aureus [11]): 1.56 µg/mL (≈ 4.32 µM) | MIC (Staphylococcus aureus [12]): 1.56 µg/mL (≈ 4.32 µM) | MIC (Staphylococcus aureus [13]): 1.56 µg/mL (≈ 4.32 µM) | MIC (Enterococcus faecalis [14]): > 100 µg/mL

O=C1Nc2c(I)cccc2/C1=N/NC(=S)Nc1ccc(F)cc1
MIC (Staphylococcus aureus [1]): 0.78 µg/mL (≈ 1.77 µM) | MIC (Staphylococcus aureus [2]): 3.12 µg/mL (≈ 7.09 µM) | MIC (Staphylococcus aureus [3]): 0.78 µg/mL (≈ 1.77 µM) | MIC (Klebsiella pneumoniae): > 100 µg/mL | MIC (Pseudomonas aeruginosa): > 100 µg/mL | MIC (Staphylococcus aureus [4]): 3.12 µg/mL (≈ 7.09 µM) | MIC (Bacillus spizizenii): ≤ 0.78 µg/mL | MIC (Staphylococcus aureus [5]): 0.78 µg/mL (≈ 1.77 µM) | MIC (Enterococcus faecalis [6]): 6.25 µg/mL (≈ 14.2 µM) | MIC (Staphylococcus aureus [7]): 1.56 µg/mL (≈ 3.54 µM) | MIC (Staphylococcus aureus [8]): 1.56 µg/mL (≈ 3.54 µM) | MIC (Staphylococcus aureus [9]): 1.56 µg/mL (≈ 3.54 µM) | MIC (Staphylococcus aureus [10]): 1.56 µg/mL (≈ 3.54 µM) | MIC (Staphylococcus aureus [11]): 1.56 µg/mL (≈ 3.54 µM) | MIC (Staphylococcus aureus [12]): 1.56 µg/mL (≈ 3.54 µM) | MIC (Staphylococcus aureus [13]): 3.12 µg/mL (≈ 7.09 µM) | MIC (Enterococcus faecalis [14]): 3.12 µg/mL (≈ 7.09 µM)

O=C1Nc2c(I)cccc2/C1=N/NC(=S)Nc1ccc(Br)cc1
MIC (Staphylococcus aureus [1]): 1.56 µg/mL (≈ 3.11 µM) | MIC (Staphylococcus aureus [2]): 6.25 µg/mL (≈ 12.5 µM) | MIC (Staphylococcus aureus [3]): 0.78 µg/mL (≈ 1.56 µM) | MIC (Klebsiella pneumoniae): > 100 µg/mL | MIC (Pseudomonas aeruginosa): > 100 µg/mL | MIC (Staphylococcus aureus [4]): 3.12 µg/mL (≈ 6.23 µM) | MIC (Bacillus spizizenii): ≤ 0.78 µg/mL | MIC (Staphylococcus aureus [5]): 1.56 µg/mL (≈ 3.11 µM) | MIC (Enterococcus faecalis [6]): 12.5 µg/mL (≈ 24.9 µM) | MIC (Staphylococcus aureus [7]): 3.12 µg/mL (≈ 6.23 µM) | MIC (Staphylococcus aureus [8]): 3.12 µg/mL (≈ 6.23 µM) | MIC (Staphylococcus aureus [9]): 1.56 µg/mL (≈ 3.11 µM) | MIC (Staphylococcus aureus [10]): 3.12 µg/mL (≈ 6.23 µM) | MIC (Staphylococcus aureus [11]): 3.12 µg/mL (≈ 6.23 µM) | MIC (Staphylococcus aureus [12]): 3.12 µg/mL (≈ 6.23 µM) | MIC (Staphylococcus aureus [13]): 1.56 µg/mL (≈ 3.11 µM) | MIC (Enterococcus faecalis [14]): 3.12 µg/mL (≈ 6.23 µM)
